Laboratory results: patent US11912697B1, “1,3-benzothiazol-2-yl-N′-[(pyridine-3-carbonyl)oxy]ethanimidamide as an antitumor and antimicrobial compound” (King Faisal University, priority 2023, dated 2024)

How the values were obtained:
[1] = test system: Bacillus cereus, Staphylococcus aureus, Pseudomonas aeruginosa, Escherichia coli, Aspergillus flavus, Chrysosporium keratinophilum; experiment: Agar plate disc-diffusion antimicrobial screen; assay type: cell-based; conditions: 10 μL of 10 mg/mL in DMSO per disc, result in words only
Experimental: The agar plate disc-diffusion method was applied. Sterilized filter papers (6 mm in diameter) were wetted with 10 μL of a solution of each compound to be tested, containing 10 mg/mL in DMSO, and the discs were allowed to air dry. The discs were then placed onto the surface of agar plates (nutrient agar for bacteria and Sabouraud's dextrose agar for fungi) and seeded with the test organism. Each plate contained 15 mL of the agar medium, previously seeded with 0.2 mL of the broth culture of each organism pre-grown for 18 h. The plates were incubated at 37° C. for 48 h, and 72 h for fungi. The inhibition zones were measured in mm. Discs impregnated with DMSO were used as a control, and its inhibition zone was subtracted from the tested compound actual inhibition zone.
In particular, the present 1,3-benzothiazol-2-yl-N′-[(pyridine-3-carbonyl)oxy]ethanimidamide was screened against gram positive bacteria, namely Bacillus cereus and Staphylococcus aureus, and gram-negative bacterial strains, namely Pseudomonas aeruginosa and Escherichia coli, while the antifungal activity was screened against Aspergillus flavus and Chrysosporium keratinophilum.

[2] = test system: human osteosarcoma cells (MG-63); experiment: Cytotoxicity by SRB assay, MG-63 cells; assay type: cell-based; conditions: for IC50: mean ± SD
Experimental: (§1) The human prostate cancer cells (PC3) and human osteosarcoma cells (MG-63) were obtained from Nawah Scientific Inc. (Mokatam, Cairo, Egypt) and cultured in DMEM (Dulbecco's modified eagle's medium), Gibco, USA, supplemented with fetal bovine serum (FBS) at a concentration of 10% and 100 U/mL of penicillin and streptomycin (PS). The Cells were incubated at 37° C. in a humidified environment that contained 5% CO2.
(§2) Cells were seeded in 96-well plates as aliquots of 100 μL cell suspension and incubated in a complete media for 24 h. Afterward, cells were treated with N′-[(2-chlorobenzoyl)oxy]-1,3-benzothiazole-2-carboximidamide at diverse concentrations ranging from 0.01 μM to 100 μM for 72 h. Then, cells were fixed at 4° C. for one hour with 150 μL of 10% trichloroacetic acid (TCA). After washing the cells five times with distilled water, 70 μL of sulforhodamine (SRB) solution (0.4% w/v) was added and incubated for 10 min at room temperature in a dark place. Cells were washed with 1% acetic acid three times and allowed to air-dry. Then, 150 μL of Tris pH 10.5 (10 mM) was added, and the absorbance was measured at 540 nm using a BMG LABTECH®-FLUOstar Omega microplate reader (Ortenberg, Germany). Half maximal inhibitory concentrations (IC50) values were calculated for each experiment using GraphPad Prism 6 software. IC50 values were reported as mean […] SD.
(§3) The inhibition was calculated using the following equation: Inhibition %=100−Average Viability

[3] = test system: human prostate cancer cells (PC3); experiment: Cytotoxicity by SRB assay, PC3 cells; assay type: cell-based; conditions: PC-3 cells; for IC50: mean ± SD
Experimental: as §1, §2, §3

NC(=NOC(=O)c1ccccc1Cl)c1nc2ccccc2s1 [N′-[(2-chlorobenzoyl)oxy]-1,3-benzothiazole-2-carboximidamide]
antimicrobial activity [1]: excellent antimicrobial activities

COc1cccc2c1C(=O)c1c(O)c3c(c(O)c1C2=O)C[C@@](O)(C(=O)CO)C[C@@H]3O[C@H]1C[C@H](N)[C@H](O)[C@H](C)O1 [DOX, Doxorubicin, reference compound]
IC50 ([2]; Homo sapiens, MG-63, 72 h): 9.4 ± 1.1 µM | IC50 ([3]; Homo sapiens, PC-3, 72 h): 7.6 ± 0.45 µM

N/C(Cc1nc2ccccc2s1)=N\OC(=O)c1cccnc1 [Present Compound, 1,3-benzothiazol-2-yl-N′-[(pyridine-3-carbonyl)oxy]ethanimidamide]
antimicrobial activity [1]: high levels of antimicrobial activity | melting point: 150 to 152 °C | IC50 ([2]; 72 h): 3.59 ± 0.2 µM | inhibition at 10 µg/mL ([2]; Homo sapiens, 10 μg/ml, 72 h): 91.2% | inhibition at 100 µg/mL ([2]; Homo sapiens, 100 μg/ml, 72 h): 92.1% | IC50 ([2]; Homo sapiens, MG-63, 72 h): < 4 µM | Prostate Cancer (PC-3) Inhibition % ([3]; 10 μg/ml, 72 h): 96.21% | inhibition at 10 µg/mL ([3]; Homo sapiens, PC-3, 72 h, 10 μg/ml): 96% | inhibition at 100 µg/mL ([3]; Homo sapiens, PC-3, 72 h, 100 μg/ml): 97% | IC50 ([3]; Homo sapiens, PC-3, 72 h): < 4 µM | IC50 ([3]; 72 h): 2.71 ± 0.03 µM
